Test results taken from US11072614B2, “Polymorphs of sepiapterin and salts thereof” (PTC Therapeutics MP, Inc., priority 2016, dated 2021).

Columns and labels:
Type in all cases: physicochemical
[1] = Storage stability study of solid forms, HPLC purity (Example 11)
Protocol: (§1) Form A and F samples were placed in chambers with silica gel to remove water (the relative humidity was measured to be ˜10% RH) at different temperatures. Form D samples were placed in chambers with water (relative humidity was estimated to be ˜100% RH) at different temperatures.
(§2) The HPLC purities and XRD patterns were obtained for each of Form A/F/D samples stored at various temperatures.

[2] = Storage stability study of solid forms, form change by XRD (Example 11)
Protocol: For X-ray powder diffraction analysis, a PANalytical Empyrean X-ray powder diffractometer was used. The parameters are as follows:
as §1, §2

[3] = Storage stability of polymorphs, HPLC sepiapterin and impurity profile (Example 12); parameters: Impurity RRT 1.06 / Impurity RRT 1.08 / Impurity RRT 1.17 / Impurity RRT 1.21 / Impurity RRT 1.25 / Impurity RRT 0.62 / Impurity RRT 0.89 / Impurity RRT 0.95 / Impurity RRT 0.60: unit not given here; conditions: for stability compared with polymorph A (in words): storage at RT, 35° C., 50° C., 1 w and 4 w
Protocol: Samples of sepiapterin free base polymorph Forms D, F, and A were stored at room temperature (RT), 35° C., and 50° C. The samples were analyzed by HPLC at 1 week and 4 week intervals. The HPLC parameters were as follows: [table]

[4] = Physical form stability to grinding and sieving (XRD before and after)
Protocol: A sample of sepiapterin free base was obtained commercially. […] The sepiapterin sample contained particles with an average particle size over 100 μm. The XRD pattern was determined before and after grinding to reduce the particle size such that it passes through a 140 mesh screen. This polymorph of sepiapterin free base is referred to as Form A herein.

[5] = 35° C., 10% RH, storage 4 weeks
[6] = 50° C., 10% RH, storage 4 weeks
[7] = 35° C./10% RH, 1 w, listed as Polymorph F
[8] = 35° C./10% RH, 4 w, listed as Polymorph F
[9] = 50° C./10% RH, 1 w, listed as Polymorph F
[10] = 50° C./10% RH, 4 w, listed as Polymorph F
[11] = RT/10% RH, 1 w, listed as Polymorph F
[12] = RT/10% RH, 4 w, listed as Polymorph F
[13] = 35° C., 100% RH, storage 1 week
[14] = 35° C., 100% RH, storage 4 weeks
[15] = 50° C., 100% RH, storage 1 week
[16] = 50° C., 100% RH, storage 4 weeks

C[C@H](O)C(=O)C1=Nc2c(nc(N)[nH]c2=O)NC1 [Form F, sepiapterin]
% of Initial ([1]; 35° C., 10% RH, storage 1 week): 99.7%
Purity (area %) ([1]; 35° C., 10% RH, storage 1 week): 99.4 area %
% of Initial [1, 5]: 99.7%
Purity (area %) [1, 5]: 99.4 area %
% of Initial ([1]; 50° C., 10% RH, storage 1 week): 99.4%
Purity (area %) ([1]; 50° C., 10% RH, storage 1 week): 99.2 area %
% of Initial [1, 6]: 99.1%
Purity (area %) [1, 6]: 98.9 area %
% of Initial ([1]; RT, 10% RH, storage 1 week): 99.7%
Purity (area %) ([1]; RT, 10% RH, storage 1 week): 99.4 area %
% of Initial ([1]; RT, 10% RH, storage 4 weeks): 99.8%
Purity (area %) ([1]; RT, 10% RH, storage 4 weeks): 99.5 area %
Form change ([2]; 35° C., 10% RH, storage 1 week): No
Form change [2, 5]: No
Form change ([2]; 50° C., 10% RH, storage 1 week): No
Form change [2, 6]: No
Form change ([2]; RT, 10% RH, storage 1 week): No
Form change ([2]; RT, 10% RH, storage 4 weeks): No
Impurity RRT 0.60 ([3]; 35° C./10% RH, 1 w): <0.05
Impurity RRT 0.95 [3, 7]: 0.35
Impurity RRT 1.08 [3, 7]: 0.06
Impurity RRT 1.17 [3, 7]: 0.15
Sepiapterin RRT 1.00 (amount of sepiapterin) [3, 7]: 99.43%
Impurity RRT 0.60 ([3]; 35° C./10% RH, 4 w): <0.05
Impurity RRT 1.08 ([3]; 35° C./10% RH, 4 w): <0.05
Impurity RRT 0.95 [3, 8]: 0.42
Impurity RRT 1.17 [3, 8]: 0.15
Sepiapterin RRT 1.00 (amount of sepiapterin) [3, 8]: 99.43%
Impurity RRT 0.60 ([3]; 50° C./10% RH, 1 w): <0.05
Impurity RRT 0.95 [3, 9]: 0.58
Impurity RRT 1.08 [3, 9]: 0.11
Impurity RRT 1.17 [3, 9]: 0.15
Sepiapterin RRT 1.00 (amount of sepiapterin) [3, 9]: 99.15%
Impurity RRT 0.60 ([3]; 50° C./10% RH, 4 w): 0.12
Impurity RRT 1.17 ([3]; 50° C./10% RH, 4 w): 0.17
Impurity RRT 0.95 [3, 10]: 0.86
Impurity RRT 1.08 [3, 10]: <0.05
Sepiapterin RRT 1.00 (amount of sepiapterin) [3, 10]: 98.85%
Sepiapterin RRT 1.00 (amount of sepiapterin) ([3]; 50° C./10% RH, 4 w, listed as polymorph F): 98.85%
Impurity RRT 0.60 ([3]; Initial): <0.05
Impurity RRT 1.08 ([3]; Initial): <0.05
Impurity RRT 1.17 ([3]; Initial): 0.17
Impurity RRT 0.95 ([3]; Initial, listed as Polymorph F): 0.09
Sepiapterin RRT 1.00 (amount of sepiapterin) ([3]; Initial, listed as Polymorph F): 99.74%
Sepiapterin RRT 1.00 (amount of sepiapterin) ([3]; Initial, listed as polymorph F): 99.74%
Impurity RRT 0.60 ([3]; RT/10% RH, 1 w): <0.05
Impurity RRT 1.17 ([3]; RT/10% RH, 1 w): 0.16
Impurity RRT 0.95 [3, 11]: 0.29
Impurity RRT 1.08 [3, 11]: 0.14
Sepiapterin RRT 1.00 (amount of sepiapterin) [3, 11]: 99.42%
Impurity RRT 0.60 ([3]; RT/10% RH, 4 w): <0.05
Impurity RRT 1.08 ([3]; RT/10% RH, 4 w): <0.05
Impurity RRT 1.17 ([3]; RT/10% RH, 4 w): 0.16
Impurity RRT 0.95 [3, 12]: 0.30
Sepiapterin RRT 1.00 (amount of sepiapterin) [3, 12]: 99.54%
stability compared with polymorph A (in words) [3]: significantly greater stability
physical form stability to grinding and sieving [4]: confirms the stability

C[C@H](O)C(=O)C1=Nc2c(nc(N)[nH]c2=O)NC1 [Form D, sepiapterin]
% of Initial [1, 13]: 99.7%
Purity (area %) [1, 13]: 98.8 area %
% of Initial [1, 14]: 99.6%
Purity (area %) [1, 14]: 98.7 area %
% of Initial [1, 15]: 99.3%
Purity (area %) [1, 15]: 98.5 area %
% of Initial [1, 16]: 98.5%
Purity (area %) [1, 16]: 97.7 area %
% of Initial ([1]; RT, 100% RH, storage 1 week): 99.9%
Purity (area %) ([1]; RT, 100% RH, storage 1 week): 99.0 area %
% of Initial ([1]; RT, 100% RH, storage 4 weeks): 99.8%
Purity (area %) ([1]; RT, 100% RH, storage 4 weeks): 98.9 area %
Form change [2, 13]: No
Form change [2, 14]: No
Form change [2, 15]: No
Form change [2, 16]: No
Form change ([2]; RT, 100% RH, storage 1 week): No
Form change ([2]; RT, 100% RH, storage 4 weeks): No
Impurity RRT 0.62 ([3]; 35° C./100% RH, 1 w): <0.05
Impurity RRT 0.95 ([3]; 35° C./100% RH, 1 w): 0.86
Impurity RRT 1.08 ([3]; 35° C./100% RH, 1 w): 0.14
Impurity RRT 1.17 ([3]; 35° C./100% RH, 1 w): 0.17
Sepiapterin RRT 1.00 (amount of sepiapterin) ([3]; 35° C./100% RH, 1 w): 98.83%
Impurity RRT 0.62 ([3]; 35° C./100% RH, 4 w): 0.09
Impurity RRT 0.95 ([3]; 35° C./100% RH, 4 w): 1.04
Impurity RRT 1.08 ([3]; 35° C./100% RH, 4 w): <0.05
Impurity RRT 1.17 ([3]; 35° C./100% RH, 4 w): 0.17
Sepiapterin RRT 1.00 (amount of sepiapterin) ([3]; 35° C./100% RH, 4 w): 98.70%
Impurity RRT 0.62 ([3]; 50° C./100% RH, 1 w): 0.08
Impurity RRT 0.95 ([3]; 50° C./100% RH, 1 w): 1.05
Impurity RRT 1.08 ([3]; 50° C./100% RH, 1 w): 0.26
Impurity RRT 1.17 ([3]; 50° C./100% RH, 1 w): 0.16
Sepiapterin RRT 1.00 (amount of sepiapterin) ([3]; 50° C./100% RH, 1 w): 98.45%
Impurity RRT 0.62 ([3]; 50° C./100% RH, 4 w): 0.14
Impurity RRT 0.95 ([3]; 50° C./100% RH, 4 w): 2.03
Impurity RRT 1.08 ([3]; 50° C./100% RH, 4 w): <0.05
Impurity RRT 1.17 ([3]; 50° C./100% RH, 4 w): 0.18
Sepiapterin RRT 1.00 (amount of sepiapterin) ([3]; 50° C./100% RH, 4 w): 97.65%
Impurity RRT 1.08 ([3]; Initial): <0.05
Impurity RRT 1.17 ([3]; Initial): 0.17
Impurity RRT 0.62 ([3]; Initial, listed as Polymorph D): <0.05
Impurity RRT 0.95 ([3]; Initial, listed as Polymorph D): 0.69
Sepiapterin RRT 1.00 (amount of sepiapterin) ([3]; Initial, listed as Polymorph D): 99.14%
Sepiapterin RRT 1.00 (amount of sepiapterin) ([3]; Initial, listed as polymorph D): 99.14%
Impurity RRT 0.62 ([3]; RT/100% RH, 1 w): <0.05
Impurity RRT 0.95 ([3]; RT/100% RH, 1 w): 0.83
Impurity RRT 1.08 ([3]; RT/100% RH, 1 w): <0.05
Impurity RRT 1.17 ([3]; RT/100% RH, 1 w): 0.16
Sepiapterin RRT 1.00 (amount of sepiapterin) ([3]; RT/100% RH, 1 w): 99.01%
Impurity RRT 0.62 ([3]; RT/100% RH, 4 w): 0.09
Impurity RRT 0.95 ([3]; RT/100% RH, 4 w): 0.81
Impurity RRT 1.08 ([3]; RT/100% RH, 4 w): <0.05
Impurity RRT 1.17 ([3]; RT/100% RH, 4 w): 0.17
Sepiapterin RRT 1.00 (amount of sepiapterin) ([3]; RT/100% RH, 4 w): 98.92%
stability compared with polymorph A (in words) [3]: significantly greater stability
physical form stability to grinding and sieving [4]: potential instability
